Experimental findings from publication PMC3156243, “Properties and Crystal Structure of Methylenetetrahydrofolate Reductase from Thermus thermophilus HB8” (PLoS ONE, 2011) are described below.

This assay addresses T1, MTHFR (methylenetetrahydrofolate reductase) (Thermus thermophilus, UniProt Q5SLG6).
T1 construct: gene TTHA0327
The assay can be described thus: biochemical.

One may read the Ki as a dissociation constant, usually derived from enzyme kinetics or from competition with a known ligand. A high value points to a looser hold on the target.

T1 sequence (Q5SLG6 1-296): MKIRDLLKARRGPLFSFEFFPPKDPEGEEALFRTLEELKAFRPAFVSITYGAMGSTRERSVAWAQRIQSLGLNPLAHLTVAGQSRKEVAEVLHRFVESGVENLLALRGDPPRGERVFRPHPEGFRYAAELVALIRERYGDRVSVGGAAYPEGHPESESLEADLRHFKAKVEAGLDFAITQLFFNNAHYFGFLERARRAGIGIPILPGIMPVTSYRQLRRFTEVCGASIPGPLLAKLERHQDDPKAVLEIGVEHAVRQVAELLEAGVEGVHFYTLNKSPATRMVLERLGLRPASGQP

In turn, `CN1c2c(nc(N)[nH]c2=O)NC[C@@H]1CNc1ccc(C(=O)N[C@@H](CCC(=O)O)C(=O)O)cc1` (mixture of isomers) [(6S)-5-CH3-H4folate] showed a Ki of 15 ± 6 µM.
